Common to all, as to test: NCI tumour cell line growth inhibition, 48 h
Assay [1] deals with NCI-H460 lung.
Assay [2] concerns MALME-3M melanoma.
In assay [3] the test system is EKVX NSCLC.
Assay [4] relates to UACC-257 melanoma.
Assay [5] has as its system SN12C renal.
Assay [6] deals with UACC-62 melanoma.
For assay [7], the system named is HCC-2998 colon.
The subject of assay [8] is SNB-75 CNS.
Assay [9] relates to SF-268 CNS.
The subject of assay [10] is MDA-MB-231 breast.

The values below come from PubChem BioAssay (NCI).

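Where inhibition never reached the appropriate level, the endpoint shown equals the highest concentration tested. Otherwise, values were interpolated linearly from a five-concentration, 48-hour dose response in 96-well plates. TGI marks complete inhibition of growth.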

Regarding `COC(=O)C1=C(C(=O)OC)SC(=C2SCSC3=C2SC(C(=O)OC)=C(C(=O)OC)C32SC3=C(CCCC3)S2)S1`, the TGI in assay [1], in assay [2], in [3], in assay [4], in assay [5] and in assay [6] was above 100 µM throughout. Further, the TGI in assay [7] was above 100 µM; in assay [8], 36.3 µM; in assay [9] it was above 100 µM; in assay [10], above 100 µM.

Turning to `CC(=O)/C=C/C1=C(C)CCCC1(C)CC(C)C` (stereo unspecified), the TGI in [1] is above 100 µM; in assay [2], 89.1 µM; in [3], above 100 µM; in [4], 84 µM; in assay [5], 38.5 µM; in assay [6], 87.3 µM. Besides, the TGI was 35.7 µM in assay [7], 93 µM in assay [8], above 100 µM in assay [9] and above 100 µM in assay [10].

Turning to `NC1(c2cc3ccccc3s2)CCCC1`, the TGI is above 100 µM in [1]; above 100 µM in assay [2]; above 100 µM in [3]; 81.2 µM in assay [4]; above 100 µM in assay [5]; above 100 µM in assay [6]. In addition, the TGI is 46.1 µM in [7], above 100 µM in assay [8], above 100 µM in [9] and above 100 µM in assay [10].

Consider `CCOP(=O)(OCC)C(F)(F)c1ccc(CC(NC(=O)OC(C)(C)C)C(=O)O)cc1` (stereo unspecified), for which the TGI in assay [1], in assay [2], in [3], in assay [4], in assay [5] and in assay [6] was above 10 µM throughout. Further, the TGI in assay [7], in [8], in [9] and in assay [10] was above 10 µM throughout.

As to `O=S(=O)(c1ccccc1)c1cccc2c1NCCC2`, the TGI in assay [1] was above 100 µM; in assay [2], above 100 µM; in assay [3], above 100 µM; in [4] it was 76.9 µM; in assay [5] it was above 100 µM; in [6] it was above 10 µM. For the same compound, the TGI in assay [7], in assay [8], in [9] and in assay [10] was above 100 µM throughout.

For `CCN(CC)C(=S)N/N=C/c1cc([N+](=O)[O-])ccc1O`, the TGI in [1] was found to be 24.8 µM; in [2] it was 23.3 µM; in assay [3] it was 78.9 µM; in assay [4], 32.2 µM; in [5] it was 25.6 µM; in assay [6], 15.4 µM. Moreover, the TGI in assay [7] was 40.3 µM; in assay [8], 72.7 µM; in assay [9], 57.5 µM; in [10], 30.4 µM.

Take `CCC(=O)NC(Nc1cc(C)on1)(C(F)(F)F)C(F)(F)F`: the TGI in [1], in assay [2], in assay [3], in assay [4], in [5] and in assay [6] was above 100 µM each time. For the same compound, the TGI in [7], in assay [8], in assay [9] and in [10] was above 100 µM each time.

`COc1ccc(C(=C2C=CC=C2)c2ccc(OC)cc2)cc1`: the TGI in [1] is 86.7 µM; in assay [2] it was 81.8 µM; in assay [3], above 100 µM; in assay [4], above 100 µM; in assay [5] it was 81.3 µM; in assay [6] it was 98.1 µM. In addition, the TGI was 42.6 µM in [7], above 100 µM in [8], above 100 µM in [9] and 34.8 µM in assay [10].

For `O=C(/C=C/c1ccc2c(c1)OCO2)c1ccc(O)cc1`, the TGI in [1] came to 28.6 µM; in assay [2], 28.6 µM; in [3] it was 30.3 µM; in [4], 28.8 µM; in assay [5] it was 29.1 µM; in [6], 33 µM. For the same compound, the TGI was 32.1 µM in assay [7], 75.7 µM in assay [8], above 100 µM in [9] and 31.5 µM in assay [10].

Consider `C(=C(c1ccc(OC2CCCCO2)cc1)c1ccc(OC2CCCCO2)cc1)c1ccccc1` (stereo unspecified), for which the TGI is 1.79 µM in assay [1]; 2.24 µM in assay [2]; 1.83 µM in assay [3]; 1.66 µM in [4]; 2.47 µM in assay [5]; 1.98 µM in assay [6]. The TGI in assay [7] worked out at 1.97 µM; in [8] it was 2.13 µM; in assay [9], 5.31 µM; in assay [10], 1.52 µM.

For `CC1=Nc2ccccc2OC(C)=C1N=Nc1ccc2nc(C)[nH]c2c1`, the TGI in assay [1], in [2], in [3], in assay [4], in assay [5] and in [6] was above 100 µM in each case. Also, the TGI in [7], in assay [8], in [9] and in [10] was above 100 µM each time.

As to `Oc1ccccc1CNCc1nc2ccccc2[nH]1`, the TGI in assay [3], in [4], in assay [5], in [6], in assay [7] and in assay [8] was above 100 µM throughout. Also, the TGI in [9] and in [10] was above 100 µM in each case.

Consider `CCOC(=O)c1c(CN2CCCC2)n(-c2ccccc2)c2cc(Br)c(O)cc12`, for which the TGI in [1] stood at 32.9 µM; in [2] it was 35.5 µM; in [3], 39.7 µM; in [4] it was 32.8 µM; in [5] it was 30.2 µM; in assay [6], 31.1 µM. In addition, the TGI was 36.7 µM in assay [8], 49.7 µM in assay [9] and 39.7 µM in assay [10].

Turning to `Oc1ccc2c(c1)c1c(n2CCN2CCOCC2)-c2ccccc2CC1`, the TGI is 44.2 µM in assay [1]; 53.2 µM in assay [2]; 92.5 µM in assay [3]; above 100 µM in assay [4]; 95.9 µM in assay [5]; 48.1 µM in assay [6]. In addition, the TGI was 76.3 µM in assay [8], above 100 µM in assay [9] and 80 µM in [10].
